For data set [1], the target named is T1, P-glycoprotein at the blood-brain barrier (Mus musculus, UniProt P21447).
T1 construct: investigated in vivo (Balb/C or FVB mice) by biodistribution studies and/or metabolite analysis; tissue Charles River UK; host or cells: living Balb/C or FVB mice; blood-brain barrier / brain
The data set is described as follows: Biodistribution with P-glycoprotein activity inhibited by concomitant tariquidar (TQD). The class given is in vivo, Balb/C or FVB mice. The conditions noted are these: mice, with and without TQD (FIG. 15). The procedure:
A series of radiolabelled tracers was prepared using the reported chemistry and investigated in vivo (Balb/C or FVB mice) by biodistribution studies and/or metabolite analysis. Examples in FIGS. 7-10 highlight the versatility of the reported chemistry that allows for tracers with a variety of backbone structures and side chains. By deliberately modifying chemical moieties the tracer can be fine-tuned towards up-take in tissues of interest, e.g. brain, heart or lungs. FIGS. 11-15 show the results of the in vivo investigation of a potential pro-drug tracer that was developed to monitor the efflux pump P-glycoprotein at the blood-brain barrier. […]
(§1) The respective radiotracer (0.5-1 MBq formulated in a saline solution containing 5% ethanol) was administered intravenously into the tail vein. […] The organs of interest (blood, colon, stomach, spleen, kidneys, liver, heart, lungs, tail, femur, skull, and brain) were sampled, weighed, and the radioactivity content was measured by automated gamma counting (Cobra Multi Gamma Model 5010-Packard, UK). Results were normalised to the radioactivity found in 1% of the injected dose per gram bodyweight. All experiments were performed in duplicates or triplicates and analysed using Microsoft Office Excel 2007.
Brains were homogenised in saline (0.5 ml) and ethanol (0.5 ml). […] The flow rate was 1 ml/min and the UV absorbance detector was set at 254 nm. […]

Data set [2] can be described thus: Biodistribution studies: blood and brain uptake of radiotracer over time. The class given is in vivo, Balb/C or FVB mice. As to conditions: mice. Here is the method:
A series of radiolabelled tracers was prepared using the reported chemistry and investigated in vivo (Balb/C or FVB mice) by biodistribution studies and/or metabolite analysis. Examples in FIGS. 7-10 highlight the versatility of the reported chemistry that allows for tracers with a variety of backbone structures and side chains. By deliberately modifying chemical moieties the tracer can be fine-tuned towards up-take in tissues of interest, e.g. brain, heart or lungs. FIGS. 11-15 show the results of the in vivo investigation of a potential pro-drug tracer that was developed to monitor the efflux pump P-glycoprotein at the blood-brain barrier.
Female Balb/C mice and FVB mice were obtained from Charles River UK. When used, they were eight to eleven weeks old and weighing approximately 20 g. […]
as §1

T1 sequence (P21447 whole entry): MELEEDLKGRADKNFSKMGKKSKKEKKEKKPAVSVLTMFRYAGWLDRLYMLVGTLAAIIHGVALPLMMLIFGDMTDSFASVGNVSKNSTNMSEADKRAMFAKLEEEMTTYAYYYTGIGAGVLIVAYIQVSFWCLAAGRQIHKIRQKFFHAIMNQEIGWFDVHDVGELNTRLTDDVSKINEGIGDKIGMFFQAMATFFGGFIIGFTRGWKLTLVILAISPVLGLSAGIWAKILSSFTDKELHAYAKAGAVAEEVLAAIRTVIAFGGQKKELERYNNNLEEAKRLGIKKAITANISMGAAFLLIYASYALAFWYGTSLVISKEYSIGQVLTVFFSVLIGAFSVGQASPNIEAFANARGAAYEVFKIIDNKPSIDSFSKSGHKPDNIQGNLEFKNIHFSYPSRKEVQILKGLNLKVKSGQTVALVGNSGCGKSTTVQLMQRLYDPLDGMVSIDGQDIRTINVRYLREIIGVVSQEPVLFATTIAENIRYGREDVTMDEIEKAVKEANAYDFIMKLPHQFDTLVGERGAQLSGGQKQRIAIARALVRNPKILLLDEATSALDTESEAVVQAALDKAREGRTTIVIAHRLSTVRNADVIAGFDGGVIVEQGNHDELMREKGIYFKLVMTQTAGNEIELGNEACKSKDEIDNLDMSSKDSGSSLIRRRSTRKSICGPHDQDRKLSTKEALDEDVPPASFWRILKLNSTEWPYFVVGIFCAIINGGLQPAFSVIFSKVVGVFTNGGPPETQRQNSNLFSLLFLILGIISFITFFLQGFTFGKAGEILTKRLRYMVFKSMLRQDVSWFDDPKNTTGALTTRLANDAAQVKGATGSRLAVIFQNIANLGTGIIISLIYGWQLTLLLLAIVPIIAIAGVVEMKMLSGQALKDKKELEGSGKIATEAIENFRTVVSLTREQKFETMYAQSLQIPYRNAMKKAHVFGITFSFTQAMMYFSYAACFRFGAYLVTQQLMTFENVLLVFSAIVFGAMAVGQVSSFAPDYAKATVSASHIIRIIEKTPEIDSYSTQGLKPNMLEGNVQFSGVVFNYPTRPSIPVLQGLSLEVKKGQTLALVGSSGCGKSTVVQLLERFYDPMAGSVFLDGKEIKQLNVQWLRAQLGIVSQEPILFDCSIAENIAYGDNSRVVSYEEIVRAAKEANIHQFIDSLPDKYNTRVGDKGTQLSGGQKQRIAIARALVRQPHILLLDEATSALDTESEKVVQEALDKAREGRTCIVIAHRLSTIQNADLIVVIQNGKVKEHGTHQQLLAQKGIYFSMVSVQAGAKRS

Regarding `OCCCCN1CCC(=C(c2ccccc2)c2ccc(F)cc2)CC1` [Compound [^18F]6], in data set [1], the “wash-out of tracer from the brain by P-glycoprotein” value is reported as “consistently washed out of the brain by P-glycoprotein”. Further, the brain uptake entry in data set [2] (intravenous into tail vein, uptake over time (FIG. 15)) is “high brain uptake”. Moreover, in data set [2] (intravenous, FIG. 15, suitable for nuclear imaging), the “brain to blood ratio” value is listed as “good brain to blood ratio”.

Source of the values: patent US10118892B2, “Compounds and their synthesis” (UCL BUSINESS PLC, priority 2012, dated 2018).
